This is an account of results in patent US10023602B2, “Hamamelitannin analogues and uses thereof” (Universiteit Gent, priority 2014, dated 2018).

Experiment [1] has as its system methicillin resistant S. aureus Mu50 strain (S. aureus ATCC700699) biofilm. Nature of the experiment: Biofilm susceptibility to vancomycin, pre-treatment regimen (biofilm formed in presence of compound, then vancomycin). It is filed as cell-based. The settings on record: for Pretreat (100 μM): percentage Colony Forming Units (CFU's) per biofilm: compound 100 μM during biofilm formation; for EC50: concentration needed to get 50% killing compared to antibiotic alone (VAN 20 μg/ml) and complete killing, read-out: Pretreat. (EC50). Summed up:
(§1)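 Mu50 biofilms from 10^8 CFU/ml inoculum (4 h adhesion, then 20 h, 37 °C). Pre-treatment: compound (0.1-250 μM) present during biofilm formation, then vancomycin 20 μg/ml alone 24 h; combination: mature biofilm given vancomycin 20 μg/ml plus compound 24 h. Survivors counted by plating versus vancomycin alone.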

Experiment [2] shares this test system. Description: Biofilm susceptibility to vancomycin, combination treatment regimen (mature biofilm treated with compound plus vancomycin). The following applies: for Combin. (100 μM): percentage Colony Forming Units (CFU's) per biofilm: compound 100 μM together with VAN 20 μg/ml on mature biofilm; for EC50: concentration needed to get 50% killing compared to antibiotic alone (VAN 20 μg/ml) and complete killing, read-out: Combin. (EC50). The class given is cell-based. Summed up:
as §1

Setting [3] is: then VAN 20 μg/ml, compared to the untreated (negative) control.
[4] abbreviates: compared to the untreated (negative) control.

Turning to `CS(=O)(=O)NC[C@H]1OC[C@@](O)(CNC(=O)c2ccccc2)[C@@H]1O` [compound 211, N-(((3S,4R,5R)-3,4-dihydroxy-5-(methylsulfonamidomethyl)tetrahydrofuran-3-yl)methyl)benzamide], the “Pretreat (100 μM): percentage Colony Forming Units (CFU's) per biofilm” value in experiment [1] (setting [3]) turned out to be 31.02 percentage. Besides, the “Combin. (100 μM): percentage Colony Forming Units (CFU's) per biofilm” value in experiment [2] (setting [4]) was 38.03 percentage.
Regarding `O=C(NC[C@H]1OC[C@@](O)(CNC(=O)c2ccccc2Cl)[C@@H]1O)c1ccnnc1` [compound 251, N-(((2R,3R,4S)-4-((2-chlorobenzamido)methyl)-3,4-dihydroxytetrahydrofuran-2-yl)methyl)pyridazine-4-carboxamide], in experiment [1] (setting [3]), the “Pretreat (100 μM): percentage Colony Forming Units (CFU's) per biofilm” value is given as 3.85 percentage. For the same molecule, the EC50 in experiment [1] stood at 3.38 µM; in experiment [2] it was 98.9 µM. For the same molecule, in experiment [2] (setting [4]), the “Combin. (100 μM): percentage Colony Forming Units (CFU's) per biofilm” value worked out at 37.03 percentage.
The matching figures for `O=C(NC[C@]1(O)CO[C@H](CNC(=O)c2c(Cl)ccnc2Cl)[C@H]1O)c1ccccc1` [compound 196, N-(((2R,3R,4S)-4-(benzamidomethyl)-3,4-dihydroxytetrahydrofuran-2-yl)methyl)-2,4-dichloronicotinamide]: 21.86 percentage, 13 µM, 7.88 µM and 8.072 percentage.
With `O=C(NC[C@H]1OC[C@@](O)(CNC(=O)c2ccccc2)[C@@H]1O)Nc1ccccc1` [compound 223, N-(((3S,4R,5R)-3,4-dihydroxy-5-((3-phenylureido)methyl)tetrahydrofuran-3-yl)methyl)benzamide], the “Pretreat (100 μM): percentage Colony Forming Units (CFU's) per biofilm” value in experiment [1] (setting [3]) was found to be 23.99 percentage. Further, the “Combin. (100 μM): percentage Colony Forming Units (CFU's) per biofilm” value in experiment [2] (setting [4]) is recorded as 18.72 percentage.
`Cc1cccc(C(=O)NC[C@H]2OC[C@@](O)(CNC(=O)c3ccccc3)[C@@H]2O)c1` [compound 160, N-(((2R,3R,4S)-4-(benzamidomethyl)-3,4-dihydroxytetrahydrofuran-2-yl)methyl)-3-methylbenzamide]: the “Pretreat (100 μM): percentage Colony Forming Units (CFU's) per biofilm” value in experiment [1] (setting [3]) was 23.09 percentage. In experiment [2] (setting [4]), the “Combin. (100 μM): percentage Colony Forming Units (CFU's) per biofilm” value was found to be 23.39 percentage.
The like results for `Cc1ccc(S(=O)(=O)NC[C@H]2OC[C@@](O)(CNC(=O)c3ccccc3)[C@@H]2O)cc1` [compound 216, N-(((3S,4R,5R)-3,4-dihydroxy-5-(((4-methylphenyl)sulfonamido)methyl)tetrahydrofuran-3-yl)methyl)benzamide] were, in that order, 16.96 percentage and 25.95 percentage.
Turning to `O=C(NC[C@]1(O)CO[C@H](CNC(=S)Nc2ccccc2)[C@H]1O)c1ccccc1` [compound 224, N-(((3S,4R,5R)-3,4-dihydroxy-5-((3-phenylthioureido)methyl)tetrahydrofuran-3-yl)methyl)benzamide], the “Pretreat (100 μM): percentage Colony Forming Units (CFU's) per biofilm” value in experiment [1] (setting [3]) is given as 20.22 percentage. In addition, the “Combin. (100 μM): percentage Colony Forming Units (CFU's) per biofilm” value in experiment [2] (setting [4]) is reported as 27.33 percentage.
As for `O=C(NC[C@H]1OC[C@@](O)(CNC(=O)c2cc(O)c(O)c(O)c2)[C@@H]1O)c1cc(O)c(O)c(O)c1` [compound 264, N,N′-(((2R,3R,4S)-3,4-dihydroxytetrahydrofuran-2,4-diyl)bis(methylene))bis(3,4,5-trihydroxybenzamide)], the “Pretreat (100 μM): percentage Colony Forming Units (CFU's) per biofilm” value in experiment [1] (setting [3]) stood at 22.35 percentage. Further, the EC50 in experiment [1] was found to be 63.8 µM; in experiment [2], 191 µM. Also, the “Combin. (100 μM): percentage Colony Forming Units (CFU's) per biofilm” value in experiment [2] (setting [4]) amounted to 57.74 percentage.
The like results for `O=C(NC[C@H]1OC[C@@](O)(CNC(=O)c2ccccc2)[C@@H]1O)c1ccncc1` [compound 158, N-(((2R,3R,4S)-4-(benzamidomethyl)-3,4-dihydroxytetrahydrofuran-2-yl)methyl)isonicotinamide] were, in that order, 7.268 percentage, 9.94 µM, 19.2 µM and 13.89 percentage.
For `O=C(NC[C@H]1OC[C@@](O)(CNC(=O)c2ccccc2)[C@@H]1O)c1cccnc1` [compound 167, N-(((2R,3R,4S)-4-(benzamidomethyl)-3,4-dihydroxytetrahydrofuran-2-yl)methyl)nicotinamide], the “Pretreat (100 μM): percentage Colony Forming Units (CFU's) per biofilm” value in experiment [1] (setting [3]) turned out to be 9.813 percentage. Also, the “Combin. (100 μM): percentage Colony Forming Units (CFU's) per biofilm” value in experiment [2] (setting [4]) was 15.22 percentage.
`N#Cc1ccc(C(=O)NC[C@]2(O)CO[C@H](CNC(=O)c3ccccc3Cl)[C@H]2O)cc1` [compound 236, 2-chloro-N-(((2R,3R,4S)-4-((4-cyanobenzamido)methyl)-3,4-dihydroxytetrahydrofuran-2-yl)methyl)benzamide]: in experiment [1] (compound 25 μM during biofilm formation, then VAN 20 μg/ml, compared to the untreated (negative) control), the “Pretreat. (25 μM): percentage Colony Forming Units (CFU's) per biofilm” value is 73.00 percentage. Further, the “Combin. (25 μM): percentage Colony Forming Units (CFU's) per biofilm” value in experiment [2] (compound 25 μM together with VAN 20 μg/ml on mature biofilm, compared to the untreated (negative) control) is on record as 70.73 percentage.
For the molecule `O=C(NC[C@]1(O)CO[C@H](CNC(=O)c2ccccn2)[C@H]1O)c1ccccc1` [compound 176, N-(((2R,3R,4S)-4-(benzamidomethyl)-3,4-dihydroxytetrahydrofuran-2-yl)methyl)picolinamide], the “Pretreat (100 μM): percentage Colony Forming Units (CFU's) per biofilm” value in experiment [1] (setting [3]) turned out to be 21.56 percentage. Moreover, in experiment [2] (setting [4]), the “Combin. (100 μM): percentage Colony Forming Units (CFU's) per biofilm” value is 36.02 percentage.
For the molecule `O=C(CCc1ccccc1)NC[C@H]1OC[C@@](O)(CNC(=O)c2ccccc2)[C@@H]1O` [compound 190, N-(((3S,4R,5R)-3,4-dihydroxy-5-((3-phenylpropanamido)methyl)tetrahydrofuran-3-yl)methyl)benzamide], the “Pretreat (100 μM): percentage Colony Forming Units (CFU's) per biofilm” value in experiment [1] (setting [3]) was 64.43 percentage. Also, the “Combin. (100 μM): percentage Colony Forming Units (CFU's) per biofilm” value in experiment [2] (setting [4]) was found to be 29.24 percentage.
Consider `O=C(NC[C@]1(O)CO[C@H](CNC(=O)c2cccnc2Cl)[C@H]1O)c1ccccc1` [compound 199, N-(((2R,3R,4S)-4-(benzamidomethyl)-3,4-dihydroxytetrahydrofuran-2-yl)methyl)-2-chloronicotinamide], for which the “Pretreat (100 μM): percentage Colony Forming Units (CFU's) per biofilm” value in experiment [1] (setting [3]) came out at 68.76 percentage. Besides, the EC50 in experiment [1] and in experiment [2] was over 250 µM each time. In addition, in experiment [2] (setting [4]), the “Combin. (100 μM): percentage Colony Forming Units (CFU's) per biofilm” value is on record as 65.56 percentage.
As for `Cc1ccc(C(=O)NC[C@H]2OC[C@@](O)(CNC(=O)c3ccccc3)[C@@H]2O)cc1C` [compound 180, N-(((2R,3R,4S)-4-(benzamidomethyl)-3,4-dihydroxytetrahydrofuran-2-yl)methyl)-3,4-dimethylbenzamide], the “Pretreat (100 μM): percentage Colony Forming Units (CFU's) per biofilm” value in experiment [1] (setting [3]) came out at 79.13 percentage. Also, the “Combin. (100 μM): percentage Colony Forming Units (CFU's) per biofilm” value in experiment [2] (setting [4]) was determined as 65.66 percentage.
Turning to `O=C(NC[C@]1(O)CO[C@H](CNC(=O)c2c(Cl)cc(Cl)cc2Cl)[C@H]1O)c1ccccc1` [compound 194, N-(((2R,3R,4S)-4-(benzamidomethyl)-3,4-dihydroxytetrahydrofuran-2-yl)methyl)-2,4,6-trichlorobenzamide], in experiment [1] (setting [3]), the “Pretreat (100 μM): percentage Colony Forming Units (CFU's) per biofilm” value came out at 20.50 percentage. Further, the “Combin. (100 μM): percentage Colony Forming Units (CFU's) per biofilm” value in experiment [2] (setting [4]) is recorded as 13.31 percentage.
`O=C(NC[C@H]1OC[C@@](O)(CNC(=O)c2ccccc2)[C@@H]1O)c1ccccc1` [compound 188, N,N′-(((2R,3R,4S)-3,4-dihydroxytetrahydrofuran-2,4-diyl)bis(methylene))dibenzamide]: the “Pretreat (100 μM): percentage Colony Forming Units (CFU's) per biofilm” value in experiment [1] (setting [3]) is on record as 34.36 percentage. The “Combin. (100 μM): percentage Colony Forming Units (CFU's) per biofilm” value in experiment [2] (setting [4]) came to 34.64 percentage.

As a reminder, the EC50 is the concentration that produces a half-maximal response.
